Earlier results in US20100183726A1, “COMPOSITIONS AND METHODS FOR TREATING CANCER WITH DACARBAZINE NANOEMULSIONS” (priority 2006, published 2010).
Like-named read-outs stand apart in the source and are kept apart here. One block for each compound: values may come before it.

What was measured:
[1] = tested on: Cloudman S91 cells; conditions: 100 μg/ml
[2] = tested on: B16 cells; conditions: 200 μg/ml
[3] = tested on: melanoma B16 cells
[4] = tested on: melanoma B16F10 cells; conditions: 150 mg/kg; 14 days after inoculation; p<0.01 versus untreated controls
[5] = tested on: metastatic melanoma
[6] = not given; remark: listed apart in the source
[7] = dacarbazine alone, meta-analysis of 14 studies, 1167 patients

time to maximal serum concentration (after injection of dacarbazine): 15 min
time at which detectable after intravenous injection of dacarbazine (in vivo, iv): 15 min
SMILES: NC(=O)c1nc[nH]c1N [AIC, 5-aminoimidazol-me-4-carboxamide]

SMILES: CN(C)N=Nc1[nH]cnc1C(N)=O [dacarbazine, 5-(3,3-dimethyl-1-triazeno)imidazole-4-carboxamide]
highest induction of apoptosis [1]: 22.2%
highest induction of apoptosis [2]: 11%
increased survival time ([3]; B16 cells implanted intraperitoneally): 29%
increased survival time ([3]; B16 cells implanted subcutaneously): 43%
inhibition of tumor growth ([3]; intraperitoneal injection): did not inhibit tumor growth
T50% α value relative to typical dose (higher doses (850-1980 mg/m^2)): 3.5 fold
injected dose crossing the blood-brain barrier (in vivo): 13%
protein binding (in vivo): binds weakly to proteins
secretion in breast milk (in vivo): secreted in breast milk
volume of distribution (in vivo): exceeds the water volume of the body
bioavailable fraction (intravenously injected): 50-60%
fraction of an oral dose absorbed (oral administration): 14-23%
renal clearance (regardless of the dose injected): exceeds creatinine clearance
number of metastatic pulmonary nodules [4]: significantly decreased
complete remission ([5]; 143 patients treated with dacarbazine alone): 5%
average response rates ([5]; contemporary trials): < 10%
median progression-free survival ([5]; contemporary trials): ≤ 2 months
average mean survival [5, 7]: 8 months
average response rate [5, 7]: 18.7%
complete remission average rate [5, 7]: 5.4%
patients developing constitutional symptoms (nausea, vomiting, occasionally diarrhea) ([6]; in vivo): 90%
cytopenia grade ([6]; white cell and platelet counts after injection): WHO grade 1 or rarely grade 2
